Experimental data: patent US11753407B2, “Compounds for treating spinal muscular atrophy” (PTC Therapeutics, Inc., priority 2012, dated 2023)

Columns and labels:
[1] = system: SMN2 minigene mRNA (SMN2-A minigene) in HEK293H cells; assay: SMN2 minigene mRNA splicing RT-qPCR assay in cultured cells; type: cell-based, human; conditions: Homo sapiens, HEK293-H; concentration increasing full length SMN2 mRNA 1.5-fold relative to vehicle-treated cells; HEK293H cells with SMN2-A minigene, 24 hours, 7-point concentration data; read-out: EC1.5x for production of full length SMN2 mRNA
Outline: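 Potency reflects the concentration that lifts full-length SMN2 minigene mRNA 1.5-fold above vehicle in stably transfected HEK293H cells after 24 h of treatment. Transcript abundance came from RT-qPCR as (1+E)^−Ct, normalized to GAPDH; endogenous SMN1/SMN2 are not detected.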

[2] = system: Smn protein in SMA patient fibroblast cells (GM03813); assay: Smn protein assay in cultured cells (SMN HTRF); type: cell-based, human; conditions: SMA patient fibroblast cells, 48 hours; for maximum fold (Fold) increase of Smn protein: 7-point concentration data, fold relative to vehicle control; for EC1.5x for Smn protein expression: 7-point concentration curve, SMN HTRF, concentration producing 1.5 times Smn protein vs DMSO vehicle control
Outline: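 Smn protein abundance in treated SMA fibroblasts was measured by HTRF after 48 h compound exposure. The reported EC1.5× is the concentration producing 1.5 times vehicle Smn levels.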

Structure (SMILES) | melting point [°C] | EC (1.5-fold increase) [1] [µM] | maximum fold (Fold) increase of Smn protein [2] | EC1.5x for Smn protein expression [2]
COc1ccc(-c2cc(=O)n3cc(N4CCN[C@H](C)C4)ccc3n2)cc1 [Compound 3, 2-(4-methoxyphenyl)-7-[(3R)-3-methylpiperazin-1-yl]-4H-pyrido[1,2-a]pyrimidin-4-one] | 152 to 154 | 0.3 to 1 | *** (a fold increase between >1.35 and ≤1.5 is indicated by three stars (***)) | ** (an EC1.5× between >1 μM and ≤3 μM is indicated by two stars (**))
COc1ccc(-c2cc(=O)n3cc(N4C[C@@H](C)N[C@@H](C)C4)ccc3n2)cc1 [Compound 4, 7-[(3R,5S)-3,5-dimethylpiperazin-1-yl]-2-(4-methoxyphenyl)-4H-pyrido[1,2-a]pyrimidin-4-one] | 185 to 187 | 1 to 3 | * (A maximum fold increase of ≤1.2 is indicated by one star (*)) | –
COc1ccc(-c2cc(=O)n3cc(N4CCCNCC4)ccc3n2)cc1 [Compound 5, 7-(1,4-diazepan-1-yl)-2-(4-methoxyphenyl)-4H-pyrido[1,2-a]pyrimidin-4-one] | 149 to 152 | 3 to 30 | * (A maximum fold increase of ≤1.2 is indicated by one star (*)) | –
COc1ccc(-c2cc(=O)n3cc(N4CCNC(C)(C)C4)ccc3n2)cc1OC [Compound 7, 2-(3,4-dimethoxyphenyl)-7-(3,3-dimethylpiperazin-1-yl)-4H-pyrido[1,2-a]pyrimidin-4-one] | 138 to 140 | 0.3 to 1 | *** (a fold increase between >1.35 and ≤1.5 is indicated by three stars (***)) | –
CCN1CCN(c2ccc3nc(-c4ccc(OC)c(OC)c4)cc(=O)n3c2)CC1 [Compound 9, 2-(3,4-dimethoxyphenyl)-7-(4-ethylpiperazin-1-yl)-4H-pyrido[1,2-a]pyrimidin-4-one] | 159 to 162 | 1 to 3 | *** (a fold increase between >1.35 and ≤1.5 is indicated by three stars (***)) | –

Further lines, with some results ahead:

melting point [°C] | Structure (SMILES) | EC (1.5-fold increase) [1] [µM] | maximum fold (Fold) increase of Smn protein [2] | EC1.5x for Smn protein expression [2]
178 to 182 | COc1ccc(-c2cc(=O)n3cc(N4CCN(C)CC4)ccc3n2)cc1 [Compound 2, 2-(4-methoxyphenyl)-7-(4-methylpiperazin-1-yl)-4H-pyrido[1,2-a]pyrimidin-4-one] | 1 to 3 | ** (a fold increase between >1.2 and ≤1.35 is indicated by two stars (**)) | –
181 to 184 | COc1ccc(-c2cc(=O)n3cc(N4CCN[C@H](C)C4)ccc3n2)cc1OC [Compound 8, 2-(3,4-dimethoxyphenyl)-7-[(3R)-3-methylpiperazin-1-yl]-4H-pyrido[1,2-a]pyrimidin-4-one] | 0.1 to 0.3 | **** (a fold increase between >1.5 and ≤1.65 is indicated by four stars (****)) | ** (an EC1.5× between >1 μM and ≤3 μM is indicated by two stars (**))
166 to 168 | COc1ccc(-c2cc(=O)n3cc(N4CCCN(C)CC4)ccc3n2)cc1OC [Compound 11, 2-(3,4-dimethoxyphenyl)-7-(4-methyl-1,4-diazepan-1-yl)-4H-pyrido[1,2-a]pyrimidin-4-one] | 0.3 to 1 | *** (a fold increase between >1.35 and ≤1.5 is indicated by three stars (***)) | –
158 to 160 | COc1ccc(-c2cc(=O)n3cc(N4CCN[C@@H](C)C4)ccc3n2)cc1 [Compound 12, 2-(4-methoxyphenyl)-7-[(3S)-3-methylpiperazin-1-yl]-4H-pyrido[1,2-a]pyrimidin-4-one] | 0.3 to 1 | *** (a fold increase between >1.35 and ≤1.5 is indicated by three stars (***)) | –
183 to 185 | COc1ccc(-c2cc(=O)n3cc(N4CCN(C)CC4)ccc3n2)cc1OC [Compound 13, 2-(3,4-dimethoxyphenyl)-7-(4-methylpiperazin-1-yl)-4H-pyrido[1,2-a]pyrimidin-4-one] | 1 to 3 | ** (a fold increase between >1.2 and ≤1.35 is indicated by two stars (**)) | –
